In patent publication US20230255970A1, “COMPOSITIONS AND METHODS FOR TREATING PROLIFERATIVE DISEASES” (The Broad Institute, Inc., priority 2020, published 2023):
“Also recorded” adds a separate entry of the source.

Columns and labels:
[1] = tested on: TRAF2 overexpression in U2OS cells; assay: Cell Painting morphological profile matching to TRAF2 overexpression; format: cell-based, human; conditions: Pearson correlation of Cell Painting signatures, U2OS cells
Procedure, shortened: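 Compound-treated U2OS cells were stained with six fluorescent labels and imaged, and morphological profiles were standardized plate-wise against controls. Replicate profiles were averaged into signatures. Compound and gene-overexpression signatures were matched by Pearson correlation.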

mouse sarcoma cells = assay: qRT-PCR of Yap1/NF-κB target genes in mouse sarcoma cells; format: cell-based; conditions: normalized to Hprt, Sdha, timecourse
Method: Mouse sarcoma cells were treated with 1 μM of compound for 48 h. RNA was isolated and qRT-PCR was performed for known NF-κB targets and proliferation-associated targets (i.e., Ki67, FOXM1). Target genes used to assess NF-κB inhibition specific to the cancer contexts are evaluated. For example, to test the efficacy of these compounds against NF-κB transcriptional activity in […] cells, expression of PHLDA1, IER2, and LITAF is determined. Compounds that alter expression of NF-κB target genes are assessed in proliferation studies using UPS, head and neck, prostate, and breast cancer cell lines previously associated with NF-κB dependence. IC50 studies and Western blot analyses are performed to evaluate total or phosphorylated p65 levels. Small molecules are then assessed to determine their mechanism of action. […] FIGS. 4-6 provide timecourse graphs showing the relative expression normalized to housekeeping genes.

Yap1 = assay: Nuclear Yap1 immunofluorescence in KP230 cells; format: cell-based, mouse
From the text: (§1) YAP1 cell culture and treatments: Eisinger lab: Murine KP230 cells, a Yap1-dependent cancer cell line, were derived from a tumor from the KP mouse model (Kras^G12/D; Trp53^f/fl), as described in Eisinger-Mathason, T. S. K. et al., Proc. Natl. Acad. Sci. U.S.A 112 (2015): E3402-11, which is hereby incorporated by reference in its entirety. STS-109 UPS cells were derived from a human UPS tumor and validated by Rebecca Gladdy, MD (Sinai Health System, Toronto, Ontario, Canada). TC32 cells were a gift from Patrick Grohar, MD, PhD (Children's Hospital of Philadelphia). HT-1080, HCT-116, and HEK293T cells were purchased from ATCC. KP230, HT-1080, and HEK-293T cells were grown in DMEM with 10% FBS, 1% L-glutamine, and 1% penicillin/streptomycin (P/S). […]
YAP1-related immunofluorescence and image analysis: Cells were grown on poly-L-lysine-coated chamber slides were fixed in 4% PFA (15 minutes at room temperature), permeabilized with 0.5% Triton-X100/PBS (15 minutes at room temperature), and blocked with 5% goat serum (Vector Laboratories S-1000; 1 hour at room temperature). […] The ratio of nuclear to total Yap1 expression was determined after subtracting out background GFP signal from no-primary antibody controls.

[2] = tested on: HCT-116 colon cancer cells; assay: Proliferation assay, HCT-116 cells; format: cell-based; conditions: 10 μM daily for 72 hours
From the text: as §1, with “(P/S). STS-109 cells were cultured in DMEM with 20% FBS, 1% L-glutamine, and 1% P/S. TC32 cells were grown in RPMI with 10% FBS, 1% L-glutamine, and 1% P/S. HCT-116 cells were cultured in McCoy's 5A medium with 10% FBS and 1% P/S. All cells were confirmed to be negative for mycoplasma contamination and were maintained in an incubator at 37C with 5% CO2.” for “(P/S).”
NB4A treatment: Cells were treated with 10 μM of each inhibitor or an equivalent volume of DMSO every 24 hours for 3-8 days, and counted with a hemocytometer with trypan blue exclusion daily (KP230, HT-1080, TC32, HCT-116), or every 2 days (STS-109).

With c1ccc(CNc2ncnc3ccccc23)cc1 [BRD-K43796186, N-benzylquinazolin-4-amine] the “Corr. to TRAF2” value [1] was −0.3778, the Ccl2 expression (mouse sarcoma cells) was “significantly decreased” and the Foxm1 expression (mouse sarcoma cells) was “reduced”. The Yap1 gene expression (mouse sarcoma cells; listed as NB4A) was “not affected; also recorded: not effected”, the Yap1 nuclear localization (Yap1) was “significantly attenuated” and the proliferation [2] was “did not affect the proliferation”.
